This note sets out measurements from a melting point compilation (Tetko et al.; mined from patent text by program, amines drawn as free bases though some values may be those of a salt).

Structures are written as SMILES.

The compound `CS(=O)(=O)N(c1cccc(C(=O)NCc2nc[nH]n2)c1)C1CN(C(c2ccc(Cl)cc2)c2ccc(Cl)cc2)C1` returned a melting point of 210 °C.
The result for `O=C1NCC(Cc2ccccc2Cc2ccccc2)O1` (stereo not drawn) reads 105 to 106 °C.
As for `CCC(C)(C)N1C(=O)C(=O)N(c2ccc(C#N)cc2)C1=S`, the figure is 173 to 174 °C; as for `Cc1ccc(-c2cccc(/C=C/C(=O)Nc3ccc(CN4CCCCC4CO)cc3)c2)cc1` (stereo not drawn), 137 to 139 °C.
Turning to `CCCc1cnc2c(NC(=O)c3c(Cl)cccc3Cl)cccc2c1-n1ccnc1`, the melting point lay within 160 to 161 °C.
Regarding `CCOC(=O)C(c1ccc(Nc2nc(-c3cccc(NC(=O)c4cc5c(s4)CCCCC5)c3C)cn(C)c2=O)cc1)N1CCN(CC)CC1` (stereo not drawn), the melting point fell in the range of 168 to 170 °C.
The result for `CCOC(=O)CNC(=O)N(O)C1CC(c2ccc(F)cc2)C1` (stereo not drawn) reads 130 to 132 °C; that for `N#CCCCC(=NO)c1ccc(Cl)c(Cl)c1`, 122 to 123 °C; that for `CCOC(=O)c1sc(C)nc1Oc1cccc(C(F)(F)F)c1`, 56 °C.
The compound `CC(O)C(CCCc1ccccc1)n1cnc(C(N)=O)c1N` (stereo not drawn) gave a melting point of 132 °C.
Turning to `CC(C)(C)c1cc(/C=C/C=C/C(=O)NCCN2CCC(c3c[nH]c4ccccc34)CC2)cc(C(C)(C)C)c1O`, the melting point fell in the range of 108 to 115 °C.
Turning to `CCOc1ccc2c(c1)C(C)=CC(C)(C)N2C(=O)Cl`, the melting point lay within 75.5 to 76.5 °C.
As for `CS(=O)(=O)c1ccc(-c2nc(C(F)(F)F)nc(N=[N+]=[N-])c2-c2ccccc2)cc1`, the figure is 172 to 175 °C; as for `COc1cc(C2CCNCC2)ccc1Nc1ncc2ccc(-c3cccc(S(=O)(=O)NC(C)(C)C)c3)n2n1`, 201 to 202 °C; as for `O=C(c1ccccc1)c1cc2c(s1)SCCc1cc(=O)n(-c3ccc(Cl)cc3)nc1-2`, 180 to 182 °C.
As for `Fc1ccccc1CSc1nc2cnccc2[nH]1`, the melting point lay in the range of 186 to 188 °C.
As for `Cc1ccc(S(=O)(=O)NC(=O)C2C(=O)CC(C)(C)CC2=O)cc1`, the figure is 94 to 108 °C; as for `Cc1ccc(C(C)(C)C)cc1S(=O)(=O)Cl`, 137 to 138 °C; as for `CON(C)C(=O)c1ccc(C(F)(F)F)cc1O`, 69 to 70 °C.
As for `COc1cc2c(cc1C)CCN=C2C1(c2ccco2)CC1`, the figure is 98 to 100 °C; as for `COC(=O)Nc1cc(-c2nccs2)[nH]c1C(CC1CCOCC1)c1ccc(S(=O)(=O)C2CC2)cc1` (stereo not drawn), 120 to 122 °C.
The result for `Nc1cc(-c2ccnc3c(C(=O)c4cccs4)cnn23)ccc1F` reads 241 to 242 °C; that for `O=C1Cc2cc(NC(=O)C(=O)O)ccc2N1`, 256 °C; that for `CC(=O)CS(=O)(=O)c1ccc(O)cc1`, 118 to 121 °C.
Regarding `COC(=O)[C@H](CCCCNC(=O)OC(C)(C)C)NC(=O)c1ccccc1`, the melting point fell in the range of 108 to 109 °C.
In turn, `Cn1nc(C#N)c(Nc2cc(Cl)c(Cl)cc2[N+](=O)[O-])n1` had a melting point of 148 to 150 °C.
The result for `CC(C)C(O)CCC(C)C1CCC2C3CC(O)C4CC(O)CCC4(C)C3CCC12C` (stereo not drawn) reads 169 to 173 °C.
The result for `CCOC(=O)/C=C/c1cn(Cc2ccccc2)nc1OCc1ccc(OCc2nc(-c3ccco3)oc2C)c(OC)c1` reads 147 to 148 °C.
The result for `CCCCc1ccc(S(=O)(=O)CC(O)(CS(=O)(=O)c2ccc(OC)cc2)C(=O)NO)cc1` (stereo not drawn) reads 63 to 68 °C; that for `CCCCOC(=O)c1ccc(NCc2cc(Br)ccc2OCc2ccccc2)nn1`, 133 to 135 °C.
`CC(=O)c1cc(C(=O)c2ccccc2Cl)c(N)s1` came in with a melting point of 190 to 191 °C.
The result for `CCOC(=O)C1=C(c2ccc(-n3c(C)nc4cnccc43)cc2)NC(C)=C(C(=O)OCCOC)C1c1ccccc1Cl` (stereo not drawn) reads 195 to 196 °C.
Consider `O=[N+]([O-])c1cccc(OCc2ccccc2)c1[N+](=O)[O-]`, for which the melting point is 100 to 101 °C.
For the compound `Cc1c(OCC(C)(C)CS(N)(=O)=O)nn2ncnc2c1C`, the melting point is 175 to 177 °C.
The result for `CCCCc1oc2ccccc2c1C(=O)NCc1ccc2c(-c3ccc(C)cc3)c(OCC#N)ccc2c1` reads 114 to 117 °C.
For `CC(C)c1ccc2c(c1)C(C(=O)O)c1ccccc1CO2` (stereo not drawn), the melting point fell in the range of 161 to 162 °C.
The result for `CN(C)C=NS(=O)(=O)c1cc(CCNC(=O)C(F)(F)F)ccc1-c1ccco1` reads 150 °C; that for `O=C(O)c1ccc(=O)n(CCNC(=O)c2ccncc2)c1`, greater than 300 °C; that for `COc1ccc(C(=O)CN2CCN(c3cccccc3=O)CC2)cc1OC`, 132 to 135 °C.
As for `COc1ccnc2c(S(=O)c3nc4ccccc4[nH]3)cccc12` (stereo not drawn), the figure is 178 to 179 °C; as for `CC(C)(C)OC(=O)n1cc(C(=O)C=C(O)C2(C(=O)O)C=CC=CC2)c2ccccc21` (stereo not drawn), 138 to 141 °C; as for `C=C1NC(NC(C)CC)=C(C(=O)OCC)C(NN)=C1C#N` (stereo not drawn), 120 to 121 °C.
The result for `Fc1ccc(NC(=S)c2ccccn2)c(F)c1` reads 124 to 129 °C; that for `CC(=O)c1cccc(C(=O)N2CCN(C(=O)c3cc(C(F)(F)F)cc(C(F)(F)F)c3)[C@H](Cc3ccc(C)c(C)c3)C2)c1`, 156 to 157 °C; that for `COc1ccc(C)c(NCc2ccccc2)c1`, 81 to 82 °C.
On to `Cc1cccc(-c2[nH]c(C(C)C)nc2-c2ccc(F)c(-c3ccc(S(N)(=O)=O)cc3)c2)n1`, for which the melting point is 245 to 246 °C.
The result for `Cc1ccc(N2C(=O)C(O)=C(C(=O)c3ccc(C(C)C)cc3)C2c2ccc(C(C)C)cc2)nn1` (stereo not drawn) reads 271 °C; that for `COCCc1nc2c(N)nc3cc(Br)cnc3c2n1CC(C)(C)O`, 210 to 211 °C.
Consider `CCCOCOCCc1ccc(OCCCOC(=O)C2=C(C)NC(C)=C(C(=O)OC)[C@@H]2c2cccc([N+](=O)[O-])c2)cc1`, for which the melting point was less than 50 °C.
Consider `CCN(CC)C(=O)c1c(I)ccc(F)c1[Si](C)(C)C`, for which the melting point was 58.5 to 64 °C.
The result for `CCCC(O)(CCC)c1ccc(Cl)c2nc3n(c12)CCCN3c1ccc(Cl)cc1Cl` reads 133 to 135 °C; that for `COc1ccccc1-c1cc(C2CCN(Cc3ccc(Cl)cc3)CC2)n[nH]1`, 102 to 103 °C; that for `O=C(O)c1ccc(NCCOc2ccc(Br)cc2)cc1`, 190 to 192 °C.
As for `Cc1csc(-c2cc(=O)n(C)c3ccc(C(O)(c4ccc(Cl)cc4)c4cncn4C)cc23)n1` (stereo not drawn), the figure is 200 °C; as for `Cc1c(NC(=O)c2ccc(OCC3CCOC3)cc2)ccc2cc(CNCC(C)(C)C)cnc12` (stereo not drawn), 129 °C; as for `Nc1ccc(C2CCNCC2)cc1`, 85 to 87 °C.
Take `NS(=O)(=O)NC[C@H]1COc2cc(Cl)ccc2O1`: the melting point is 99 to 100 °C.
The result for `Cn1c(=O)c2nc(-c3ccc(/C=C/C(=O)O)cc3)[nH]c2n(C)c1=O` reads 299 to 301 °C; that for `N=C(NO)c1cccc(COC(=O)c2cc3ccccc3n2Cc2cccc(C(=N)NO)c2)c1`, 114 to 116 °C.
As for `CN(C(=O)OC(C)(C)C)c1cc(Oc2ccc(-c3ccc(O)cc3)cc2)ccc1N`, the figure is 89 to 91 °C; as for `CCCc1ccccc1OCCCOc1cccc(OC(=CC(=O)O)C(=O)O)c1CC`, 104 to 105 °C; as for `OCC12CN3CN(C(c4ccccc4)N(C1)C3c1ccccc1)C2c1ccccc1` (stereo not drawn), 91 to 93 °C.
As for `Cc1cccc(-c2cncc(Nc3ccc(Cl)cc3)n2)n1`, the figure is 186 to 188 °C.
As to `CC(C)(C)OC(=O)N1CCC(c2nc3cc(-c4ccc(S(C)(=O)=O)c(F)c4)ccc3o2)CC1`, the melting point fell in the range of 174 to 178 °C.
The result for `NS(=O)(=O)c1ccc(C(=O)NCc2ccccc2)s1` reads 203 °C; that for `CCCCc1oc2ccccc2c1C(=O)NCc1ccc2c(-c3ccc(Cl)cc3)c(OC(Cc3ccccc3)C(=O)OC)ccc2c1` (stereo not drawn), 59 to 62 °C; that for `CC(=O)Nc1ccc(OCCCO[N+](=O)[O-])cc1`, 89 to 92 °C.
As for `CC(Cc1ccccc1)(NC(=O)OC1CCCCc2ccccc21)C(=O)NCCCCCCCCC(N)=O` (stereo not drawn), the figure is 98 to 100 °C; as for `CCOC(=O)/C(=N\OCC(=O)N(CC)CC)c1csc(N)n1`, 161 °C.
As for `Cc1oc(COc2ccccc2/C=C/C=C/C#N)nc1-c1ccccc1`, the figure is 128 to 129 °C; as for `O=C1C=c2c(c3c4ccccc4[nH]c3c3[nH]c4ccccc4c23)=N1`, greater than 320 °C.
`S=C1Nc2cccnc2Nc2cscc21` came in with a melting point of 255 to 260 °C.
`CCOC(=O)C1=C(C#N)Nc2ccnc(OC(C)C)c2C1c1ccccc1C(F)(F)F` (stereo not drawn) showed a melting point of 138 to 140 °C.
As for `O=CN1CCN(C(=O)CCBr)CC1`, the figure is 96 to 98 °C.
The result for `CCOC(=O)c1cc(OCCOC)c(OCCOC)cc1[N+](=O)[O-]` reads 50 to 51 °C.
In turn, `Nc1cc(=O)[nH]c(=O)n1-c1ccccc1` had a melting point greater than 280 °C.
As for `O=C(Nc1ccc2ccc(Cl)nc2n1)c1ccc(C(F)(F)F)cc1`, the figure is 236 °C; as for `COC(=O)C(CC(C)C)NC(=O)C(CC(C)C)NC(=O)OCc1ccccc1` (stereo not drawn), 80 to 82 °C.
The result for `CCc1ccccc1NC=C1C(=O)N(c2cccc(NC(=O)OC)c2)N=C1C` reads 229 °C; that for `Cc1cc2c(cc1CN1CCN(C)CC1)-c1[nH]nc(-c3ccsc3)c1C2`, 210 to 212 °C.
The result for `CSc1nc(N)nn1C` reads 104 to 109 °C; that for `CCOC(=O)C1=C(NC(=O)Nc2ccc(Cl)c(C(=O)OCC)c2)CCCC1`, 119 to 122 °C.
On to `Cn1nnnc1-c1cnc2ccccc2c1O`, for which the melting point lay within 318 to 320 °C.
On to `CC(=O)N1CCC(Oc2cccc(C(F)(F)F)c2)(c2ccccc2)CC1`, for which the melting point lay within 100 to 103 °C.
The result for `NC(=S)Nc1ccccc1-c1ccc(F)cc1` reads 140 to 142 °C.
As for `COc1nscc1C#N`, the figure is 60 to 62 °C; as for `Cn1cc(-c2cccc(C(F)(F)F)c2)c(=O)n1-c1cccc(C(F)(F)F)c1`, 110 to 111 °C.
Compound `CNC#CCC1=Cc2ccccc2Sc2ccc(Cl)cc21` returned a melting point of 92 to 94 °C.

As a reminder, the melting point is the temperature, or range, at which the solid turns liquid.
